US12673946B2, “Pyrimidin-4(3H)-one derivatives as TRPV4 antagonists” (RaQualia Pharma Inc., priority 2020, dated 2026)

Target: T1, human TRPV4 (Homo sapiens, UniProt Q9HBA0)
T1 construct: host or cells: tetracycline-inducible Flp-In T-REx 293 cells
Test: Hypotonicity-induced Ca2+ influx (Fluo-4, FDSS)
Type: cell-based
Method in brief: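 Flp-In T-REx 293 cells with tetracycline-induced human TRPV4, loaded with Fluo-4 for 60 min at 25 °C. Compound added 5 min before hypotonic mannitol/CaCl2 solution. Ca2+ signal recorded for 4.5 min on FDSS.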

[1] = Flp-In T-REx 293 cells expressing human TRPV4, examples listed under heading 'Human IC50<50 nM'
[2] = Flp-In T-REx 293 cells stably expressing human TRPV4, compounds listed by potency bin (<10 nM Tables 96-1/96-2, <3 nM Table 97)

T1 sequence (Q9HBA0 whole entry): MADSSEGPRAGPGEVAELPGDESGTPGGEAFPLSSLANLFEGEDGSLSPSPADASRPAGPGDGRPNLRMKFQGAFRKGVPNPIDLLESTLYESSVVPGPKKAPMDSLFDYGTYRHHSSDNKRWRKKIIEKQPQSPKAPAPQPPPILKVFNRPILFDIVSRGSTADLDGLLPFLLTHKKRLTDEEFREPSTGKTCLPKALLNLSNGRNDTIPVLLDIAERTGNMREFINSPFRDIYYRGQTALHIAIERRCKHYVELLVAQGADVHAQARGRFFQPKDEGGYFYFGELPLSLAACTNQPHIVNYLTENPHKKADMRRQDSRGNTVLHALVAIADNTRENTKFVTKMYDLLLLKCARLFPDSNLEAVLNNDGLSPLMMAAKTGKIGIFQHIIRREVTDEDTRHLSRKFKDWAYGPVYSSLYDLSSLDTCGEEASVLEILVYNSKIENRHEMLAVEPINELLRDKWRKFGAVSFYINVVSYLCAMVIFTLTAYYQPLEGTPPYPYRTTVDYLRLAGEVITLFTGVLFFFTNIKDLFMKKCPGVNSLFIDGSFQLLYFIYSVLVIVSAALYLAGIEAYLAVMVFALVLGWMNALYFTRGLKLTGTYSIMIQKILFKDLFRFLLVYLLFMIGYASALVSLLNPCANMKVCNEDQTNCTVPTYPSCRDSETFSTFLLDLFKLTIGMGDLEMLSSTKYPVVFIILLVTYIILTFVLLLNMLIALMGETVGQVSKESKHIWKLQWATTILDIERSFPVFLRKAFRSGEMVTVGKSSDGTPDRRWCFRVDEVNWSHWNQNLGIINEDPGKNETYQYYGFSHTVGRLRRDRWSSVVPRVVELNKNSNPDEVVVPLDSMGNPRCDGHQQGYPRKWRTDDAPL

| Structure (SMILES) | IC50 [1] [nM] | IC50 [2] [nM] |
| --- | --- | --- |
| CC(C)c1cccc(-c2cccc([C@@H](O)C(=O)N3CCCc4nc(C5(c6cccc(Cl)c6)CC5)[nH]c(=O)c4C3)c2)c1 [50-9] | < 50 | < 3 |
| CC(C)c1cccc(C2(c3nc4c(c(=O)[nH]3)CN(C(=O)Cc3cccc(-c5cccc(C(F)(F)F)c5)c3)CC4)CC2)c1 [27-6] | < 50 | < 10 |
| O=C([C@H](O)c1cccc(Cl)c1)N1CCCc2nc(C3(c4cc(C5CCCCC5)cs4)CC3)[nH]c(=O)c2C1 [18-22] | < 50 | < 3 |
| O=C(C(O)c1cncc(-c2cccc(F)c2)c1)N1CCc2nc(C3(c4ccccc4)CC3)[nH]c(=O)c2C1 (stereo not shown) [48-11] | < 50 |  |
| CC(C)Cc1cccc(C2(c3nc4c(c(=O)[nH]3)CN(C(=O)[C@H](O)c3cccc(C(F)(F)F)c3)CCC4)CC2)c1 [31-6] | < 50 | < 3 |
| O=C(Cc1cccc(-c2ccc(OC(F)(F)F)cc2)c1)N1CCc2nc(C3(c4cccc(Cl)c4)CC3)[nH]c(=O)c2C1 [14-118] | < 50 |  |
| O=C(C(O)c1cccc(-c2cnc3ccccc3c2)c1)N1CCc2nc(C3(c4cccc(Cl)c4)CC3)[nH]c(=O)c2C1 (stereo not shown) [14-3] | < 50 | < 10 |
| O=C([C@H](O)c1cccc(-c2cccc(C(F)(F)F)c2)c1)N1CCCc2nc(C3(c4cccs4)CC3)[nH]c(=O)c2C1 [53-1] | < 50 | < 10 |
| Cc1cc(-c2cccc([C@@H](O)C(=O)N3CCc4nc(C5(c6ccccc6)CC5)[nH]c(=O)c4C3)c2)ccc1Cl [44-117] | < 50 | < 10 |
| N#Cc1ccc(-c2cccc(CC(=O)N3CCCc4nc(C5(c6cccc(Cl)c6)CC5)[nH]c(=O)c4C3)c2)cc1 [17-126] | < 50 | < 10 |
| O=C(Cc1cccc(SC(F)(F)F)c1)N1CCCc2nc(C3(c4cccc(Cl)c4)CC3)[nH]c(=O)c2C1 [17-113] | < 50 | < 10 |
| CC(C)c1cncc(C2(c3nc4c(c(=O)[nH]3)CN(C(=O)[C@H](O)c3cccc(C(F)(F)F)c3)CC4)CC2)c1 [28-3] | < 50 | < 10 |
| CC(C)c1cccc(C2(c3nc4c(c(=O)[nH]3)CN(C(=O)Cc3cccc(-c5cccc(Cl)c5)c3)CC4)CC2)c1 [27-5] | < 50 |  |
| O=C(C(O)c1cccc(S(F)(F)(F)(F)F)c1)N1CCCc2nc(C3(c4cccc(F)c4)CC3)[nH]c(=O)c2C1 (stereo not shown) [17-32] | < 50 | < 10 |
| O=C(Cc1cccc(-c2cccc(Cl)c2)c1)N1CCCc2nc(C3(c4cc(-c5ccccc5)cs4)CC3)[nH]c(=O)c2C1 [18-27] | < 50 | < 10 |
| CC(C)c1cccc(C2(c3nc4c(c(=O)[nH]3)CN(C(=O)[C@H](O)c3cccc(-c5cccc(F)c5)c3)CCC4)CC2)c1 [51-8] | < 50 | < 10 |
| O=C([C@H](O)c1cccc(-c2ccc(OCc3ccccc3)nc2)c1)N1CCCc2nc(C3(c4ccccc4)CC3)[nH]c(=O)c2C1 [49-38] | < 50 | < 3 |
| CC(C)c1csc(C2(c3nc4c(c(=O)[nH]3)CN(C(=O)C(O)c3cccc(S(F)(F)(F)(F)F)c3)CCC4)CC2)c1 (stereo not shown) [18-18] | < 50 | < 10 |
| CC(C)c1csc(C2(c3nc4c(c(=O)[nH]3)CN(C(=O)C(O)c3cccc(Cl)c3F)CC4)CC2)c1 (stereo not shown) [15-27] | < 50 | < 3 |

| Structure (SMILES) | IC50 [1] [nM] | IC50 [2] [nM] |
| --- | --- | --- |
| O=C([C@H](O)c1cccc(-c2cccc(C(F)(F)F)c2)c1)N1CCc2nc(C3(c4ccccc4)CC3)[nH]c(=O)c2C1 [44-71] | < 50 | < 3 |
| CC(C)(C)c1ccc(-c2cccc(C(O)C(=O)N3CCc4nc(C5(c6ccccc6)CC5)[nH]c(=O)c4C3)c2)cc1 (stereo not shown) [44-42] | < 50 |  |
| CC(C)c1cccc(C2(c3nc4c(c(=O)[nH]3)CN(C(=O)C(F)(F)c3cccc(C(F)(F)F)c3)CC4)CC2)c1 [20-13] | < 50 |  |
| O=C(C(O)c1cccc(C(F)(F)F)c1F)N1CCc2nc(C3(c4cccc(Cl)c4)CC3)[nH]c(=O)c2C1 (stereo not shown) [14-20] | < 50 |  |
| O=C([C@H](O)c1cccc(-c2cccc(C(F)(F)F)c2)c1)N1CCCc2nc(C3(c4cc(-c5ccccc5)cs4)CC3)[nH]c(=O)c2C1 [54-14] | < 50 | < 10 |
| O=C([C@H](O)c1cccc(-c2ccc3c(c2)OC(F)(F)O3)c1)N1CCc2nc(C3(c4ccccc4)CC3)[nH]c(=O)c2C1 [44-85] | < 50 | < 3 |
| O=C([C@H](O)c1cccc(Cl)c1)N1CCCc2nc(C3(c4cc(C5CCOCC5)cs4)CC3)[nH]c(=O)c2C1 [18-25] | < 50 | < 10 |
| CC(C)c1cncc(C2(c3nc4c(c(=O)[nH]3)CN(C(=O)C(O)c3cccc(-c5cccc(C(F)(F)F)c5)c3)CCC4)CC2)c1 (stereo not shown) [55-3] | < 50 | < 10 |
| O=C([C@H](O)c1cccc(-c2cccc(C(F)(F)F)c2)c1)N1CCCc2nc(C3(c4cncc(C5CCCCC5)c4)CC3)[nH]c(=O)c2C1 [55-14] | < 50 | < 10 |
| Cc1cc(-c2cccc([C@@H](O)C(=O)N3CCCc4nc(C5(c6cccc(Cl)c6)CC5)[nH]c(=O)c4C3)c2)ccc1Cl [50-19] | < 50 | < 3 |
| COc1cccc(C2(c3nc4c(c(=O)[nH]3)CN(C(=O)[C@H](O)c3cccc(C(F)(F)F)c3)CCC4)CC2)c1 [17-54] | < 50 |  |
| O=C([C@H](O)c1cccc(C(F)(F)F)c1)N1CCCc2nc(C3(c4cccc(-c5cnc(N6CCCC6)nc5)c4)CC3)[nH]c(=O)c2C1 [42-3] | < 50 | < 3 |
| CN(Cc1ccccc1)C(=O)c1csc(C2(c3nc4c(c(=O)[nH]3)CN(C(=O)[C@H](O)c3cccc(C(F)(F)F)c3)CCC4)CC2)c1 [59-3] | < 50 | < 10 |
| CC(C)c1cncc(C2(c3nc4c(c(=O)[nH]3)CN(C(=O)[C@H](O)c3cccc(-c5ccnc(C(F)(F)F)c5)c3)CCC4)CC2)c1 [55-9] | < 50 | < 10 |
| O=C(Cc1cccc(-c2coc3ccccc23)c1)N1CCc2nc(C3(c4cccc(Cl)c4)CC3)[nH]c(=O)c2C1 [14-120] | < 50 |  |
| O=C([C@H](O)c1cccc(-c2cccc(OCc3ccccc3)c2)c1)N1CCCc2nc(C3(c4ccccc4)CC3)[nH]c(=O)c2C1 [49-26] | < 50 | < 10 |
| O=C([C@H](O)c1cccc(-c2cccc(OC(F)(F)F)c2)c1)N1CCCc2nc(C3(c4cccs4)CC3)[nH]c(=O)c2C1 [53-2] | < 50 | < 3 |
| O=C([C@H](O)c1cccc(-c2cccc(Cl)c2)c1)N1CCCc2nc(C3(c4cccc(C5CCCCC5)c4)CC3)[nH]c(=O)c2C1 [52-3] | < 50 | < 3 |
| CN(Cc1ccc2ccccc2c1)C(=O)c1csc(C2(c3nc4c(c(=O)[nH]3)CN(C(=O)[C@H](O)c3cccc(C(F)(F)F)c3)CCC4)CC2)c1 [59-17] | < 50 | < 10 |

| Structure (SMILES) | IC50 [1] [nM] | IC50 [2] [nM] |
| --- | --- | --- |
| O=C(C(O)c1cncc(-c2ccnc(C(F)(F)F)c2)c1)N1CCc2nc(C3(c4ccccc4)CC3)[nH]c(=O)c2C1 (stereo not shown) [48-7] | < 50 |  |
| O=C([C@H](O)c1cccc(F)c1F)N1CCCc2nc(C3(c4cccc(Cl)c4)CC3)[nH]c(=O)c2C1 [17-35] | < 50 | < 10 |
| O=C(Cc1cccc(-c2ccccc2)c1)N1CCCc2nc(C3(c4cccc(Cl)c4)CC3)[nH]c(=O)c2C1 [17-84] | < 50 | < 10 |
| CN(C)C(=O)c1cccc(-c2cccc(C3(c4nc5c(c(=O)[nH]4)CN(C(=O)[C@H](O)c4cccc(C(F)(F)F)c4)CCC5)CC3)c2)c1 [42-31] | < 50 | < 10 |
| O=C([C@H](O)c1cccc(C(F)(F)F)c1)N1CCCc2nc(C3(c4cccs4)CC3)[nH]c(=O)c2C1 [18-9] | < 50 | < 10 |
| O=C([C@H](O)c1cccc(-c2ccc(Cl)c(C(F)(F)F)c2)c1)N1CCCc2nc(C3(c4cccc(Cl)c4)CC3)[nH]c(=O)c2C1 [50-23] | < 50 | < 10 |
| CN(Cc1ccc(-c2cccc(C3(c4nc5c(c(=O)[nH]4)CN(C(=O)[C@H](O)c4cccc(C(F)(F)F)c4)CCC5)CC3)c2)cc1)C(=O)NC1CCCCC1 [42-93] | < 50 | < 3 |
| CC(C)c1cncc(C2(c3nc4c(c(=O)[nH]3)CN(C(=O)[C@H](O)c3cccc(-c5cccc(Cl)c5)c3)CCC4)CC2)c1 [55-8] | < 50 | < 3 |
| O=C([C@H](O)c1cccc(C(F)(F)F)c1)N1CCCc2nc(C3(c4cccc(-c5ccc6ccccc6c5)c4)CC3)[nH]c(=O)c2C1 [42-47] | < 50 | < 10 |
| O=C(Cc1cccc(-c2ccc(Cl)cc2)c1)N1CCCc2nc(C3(c4cccc(Cl)c4)CC3)[nH]c(=O)c2C1 [17-130] | < 50 | < 10 |
| O=C(Cc1cccc(C(F)(F)F)c1F)N1CCCc2nc(C3(c4ccccc4)CC3)[nH]c(=O)c2C1 [17-11] | < 50 | < 10 |
| O=C([C@H](O)c1cccc(C(F)(F)F)c1)N1CCc2nc(C3(c4cncc(C5CCOCC5)c4)CC3)[nH]c(=O)c2C1 [28-5] | < 50 |  |
| O=C(C(O)c1cccc(Cl)c1F)N1CCCc2nc(C3(c4cccs4)CC3)[nH]c(=O)c2C1 (stereo not shown) [18-10] | < 50 |  |
| O=C([C@H](O)c1cccc(-c2cc3ccccc3o2)c1)N1CCCc2nc(C3(c4ccccc4)CC3)[nH]c(=O)c2C1 [49-25] | < 50 | < 3 |
| CC(C)N(Cc1ccccc1)C(=O)c1csc(C2(c3nc4c(c(=O)[nH]3)CN(C(=O)[C@H](O)c3cccc(C(F)(F)F)c3)CCC4)CC2)c1 [59-1] | < 50 | < 10 |
| O=C(C(O)c1cccc(-c2cccc(C(F)(F)F)c2)c1)N1CCc2nc(C3(c4cccc(F)c4)CC3)[nH]c(=O)c2C1 (stereo not shown) [14-6] | < 50 | < 10 |
| O=C(CCc1cccc(C(F)(F)F)c1)N1CCCc2nc(C3(c4cccc(Cl)c4)CC3)[nH]c(=O)c2C1 [17-121] | < 50 |  |
| O=C([C@H](O)c1cccc(-c2cc(F)cc(Cl)c2)c1)N1CCc2nc(C3(c4ccccc4)CC3)[nH]c(=O)c2C1 [44-77] | < 50 | < 10 |
